According to patent US9540392B2, “Thienopyrimidines” (BAYER PHARMA AKTIENGESELLSCHAFT, priority 2012, dated 2017):

Key:
[1] = target: T1, human full-length MKNK1 (Homo sapiens, UniProt Q9BUB5, T385D); assay: MKNK1 kinase high ATP assay (TR-FRET); assay type: biochemical; settings: 2 mM ATP, after preincubation with MKNK1; read-out: MKNK1 IC50 (MKNK1 high ATP)
T1 construct: GST (N); purchased Carna Biosciences 02-145; host or cells: insect cells (baculovirus expression system)
Outline: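 Compound was preincubated 15 min at 22° C. with MKNK1 in 50 mM HEPES pH 7.5, 5 mM MgCl2, 1.0 mM DTT, then the reaction ran 30 min at 22° C. with 2 mM ATP and 0.06 μM biotinylated peptide (final).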

[2] = test system: 221 kinases other than MKNK; assay: Kinase selectivity profiling (Merck Millipore KinaseProfiler); assay type: biochemical; settings: compound at 1 μM
Experimental: Compounds of the present invention show a higher kinase inhibition selectivity than compounds disclosed in the patent applications WO 2010/023181 A1, WO 2011/104334 A1, WO 2011/104337 A1, WO 2011/104338 A1 and WO 2011/104340 A1 (Boehringer Ingelheim).
The compounds were tested at a concentration of 1 μM using 221 kinases different from MKNK. Kinase activity is expressed as a percentage of the mean kinase activity in the positive control samples. The positive control value is considered to be 100%, and all test samples are measured in relation to this value. For example, a result of 40% means that, in comparison to the positive control sample, 40% kinase activity remains in the presence of the test compound.
Table 6 lists the fraction number of 221 investigated kinases with regard to their remaining activity in the presence of 1 μM of investigated compounds.
The compound described in example 10 is compared to the compound N-[3-(dimethylamino)propyl]-4-[(4-fluoro-2-isopropoxyphenyl)amino]-5-methylthieno[2,3-d]pyrimidine-6-carboxamide which served as reference compound (ref) and has been described in WO 2010/23181, WO 2011/104340 and US 2011/212103.

[3] = test system: eIF4E Ser209 phosphorylation in A549 cells; assay: AlphaScreen SureFire eIF4E Ser209 phosphorylation assay in A549 cells with 20% FCS stimulation; assay type: cell-based; settings: Homo sapiens, read-out: pEIF4e (IC50 of the EIF4e phosphorylation)
Description: The AlphaScreen SureFire eIF4E Ser209 phoshorylation assay is used to measure the phosphorylation of endogenous eIF4E in cellular lysates. The AlphaScreen SureFire technology allows the detection of phosphorylated proteins in cellular lysates. In this assay, sandwich antibody complexes, which are only formed in the presence of the analyte (p-eIF4E Ser209), are captured by AlphaScreen donor and acceptor beads, bringing them into close proximity. The excitation of the donor bead provokes the release of singlet oxygen molecules that triggers a cascade of energy transfer in the Acceptor beads, resulting in the emission of light at 520-620 nm.
Surefire EIF4e Alphascreen in A549 cells with 20% FCS stimulation
For the assay the AlphaScreen SureFire p-eIF4E Ser209 10K Assay Kit and the AlphaScreen ProteinA Kit (for 10K assay points) both from Perkin Elmer were used. On day one 50.000 A549 cells were plated in a 96-well plate in 100 μL per well in growth medium (DMEM/Hams' F12 with stable Glutamin, 10% FCS) and incubated at 37° C. After attachment of the cells, medium was changed to starving medium (DMEM, 0.1% FCS, without Glucose, with Glutamin, supplemented with 5 g/L Maltose). On day two, test compounds were serially diluted in 50 μL starving medium with a final DMSO concentration of 1% and were added to A549 cells in test plates at a final concentration range from as high 10 μM to as low 10 nM depending on the activities of the tested compounds. Treated cells were incubated at 37° C. for 2 h. 37 ul FCS was added to the wells (=final FCS concentration 20%) for 20 min. Then medium was removed and cells were lysed by adding 50 μL lysis buffer. Plates were then agitated on a plate shaker for 10 min. After 10 min lysis time, 4 μL of the lysate is transferred to a 384 well plate (Proxiplate from Perkin Elmer) and 5 μL Reaction Buffer plus Activation Buffer mix containing AlphaScreen Acceptor beads was added. Plates were sealed with TopSeal-A adhesive film, gently agitated on a plate shaker for 2 hours at room temperature. Afterwards 2 μL Dilution buffer with AlphaScreen Donor beads were added under subdued light and plates were sealed again with TopSeal-A adhesive film and covered with foil. Incubation takes place for further 2 h gently agitation at room temperature. Plates were then measured in an EnVision reader (Perkin Elmer) with the AlphaScreen program. Each data point (compound dilution) was measured as triplicate.
The IC50 values were determined by means of a 4-parameter fit using the company's own software.

T1 sequence (Q9BUB5 1-424 isoform Q9BUB5-2 T344D): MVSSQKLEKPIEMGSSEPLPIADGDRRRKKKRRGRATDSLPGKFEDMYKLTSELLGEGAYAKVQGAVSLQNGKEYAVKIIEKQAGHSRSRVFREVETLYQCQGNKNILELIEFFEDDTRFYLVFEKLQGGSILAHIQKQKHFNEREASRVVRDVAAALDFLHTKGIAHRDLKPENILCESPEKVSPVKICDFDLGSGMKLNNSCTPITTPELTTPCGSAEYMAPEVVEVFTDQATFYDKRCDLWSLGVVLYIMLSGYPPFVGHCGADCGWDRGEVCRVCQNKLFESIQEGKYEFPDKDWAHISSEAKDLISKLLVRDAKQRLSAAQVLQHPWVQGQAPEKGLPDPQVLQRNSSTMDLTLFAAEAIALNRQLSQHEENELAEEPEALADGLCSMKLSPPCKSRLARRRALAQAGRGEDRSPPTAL

Cc1c(C(=O)NCCCN(C)C)sc2ncnc(Nc3ccc(F)cc3OC(C)C)c12 [Ref, N-[3-(dimethylamino)propyl]-4-[(4-fluoro-2-isopropoxyphenyl)amino]-5-methylthieno[2,3-d]pyrimidine-6-carboxamide, reference compound]
IC50 [1]: 0.0098 µM
Fraction number of 221 kinases with remaining activity >30% and <80% [2]: 10/221
Fraction number of 221 kinases with remaining activity ≦30% [2]: 9/221
Fraction number of 221 kinases with remaining activity ≧80% [2]: 202/221
IC50 [3]: 0.435 µM

Cc1cccc(NC(=O)C2CCc3c(sc4ncnc(Nc5ccc6[nH]ncc6c5)c34)C2)c1 (stereo not shown) [Example 16, 4-(1H-indazol-5-ylamino)-N-(3-methylphenyl)-5,6,7,8-tetrahydro[1]benzothieno[2,3-d]pyrimidine-7-carboxamide]
IC50 [1]: 0.005 µM
IC50 [3]: 0.373 µM

O=C(NCc1cccc(C(F)(F)F)c1)C1CCc2c(sc3ncnc(Nc4ccc5[nH]ncc5c4)c23)C1 (stereo not shown) [Example 9, 4-(1H-indazol-5-ylamino)-N-[3-(trifluoromethyl)benzyl]-5,6,7,8-tetrahydro[1]benzothieno[2,3-d]pyrimidine-7-carboxamide]
IC50 [1]: 0.003 µM
IC50 [3]: 0.171 µM

CCNC(=O)C1CCc2c(sc3ncnc(Nc4cc5cn[nH]c5cc4OC)c23)C1 (stereo not shown) [Example 58, N-Ethyl-4-[(6-methoxy-1H-indazol-5-yl)amino]-5,6,7,8-tetrahydro[1]benzothieno[2,3-d]pyrimidine-7-carboxamide]
IC50 [1]: 0.0007 µM
IC50 [3]: 0.203 µM

COc1cc2[nH]ncc2cc1Nc1ncnc2sc3c(c12)CCC(C(=O)N(C)C)C3 (racemic) [Example 64, (RS)-4-[(6-Methoxy-1H-indazol-5-yl)amino]-N,N-dimethyl-5,6,7,8-tetrahydro[1]benzothieno[2,3-d]pyrimidine-7-carboxamide]
IC50 [1]: 0.0008 µM
IC50 [3]: 0.051 µM

CN(C)C(=O)C1CCc2c(sc3ncnc(Nc4ccc5[nH]ncc5c4)c23)C1 (stereo not shown) [Example 10, 4-(1H-indazol-5-ylamino)-N,N-dimethyl-5,6,7,8-tetrahydro[1]benzothieno[2,3-d]pyrimidine-7-carboxamide]
IC50 [1]: 0.012 µM
Fraction number of 221 kinases with remaining activity >30% and <80% [2]: 4/221
Fraction number of 221 kinases with remaining activity ≦30% [2]: 0/221
Fraction number of 221 kinases with remaining activity ≧80% [2]: 217/221

CC(C)NC(=O)C1CCc2c(sc3ncnc(Nc4cc5cn[nH]c5cc4OC(C)C)c23)C1 (racemic) [Example 72, (RS)—N-(Propan-2-yl)-4-{[6-(propan-2-yloxy)-1H-indazol-5-yl]amino}-5,6,7,8-tetrahydro[1]benzothieno[2,3-d]pyrimidine-7-carboxamide]
IC50 [1]: 0.0006 µM
IC50 [3]: 0.075 µM

Cc1cccc(CNC(=O)C2CCc3c(sc4ncnc(Nc5ccc6[nH]ncc6c5)c34)C2)c1 (stereo not shown) [Example 20, 4-(1H-indazol-5-ylamino)-N-(3-methylbenzyl)-5,6,7,8-tetrahydro[1] benzothieno [2,3-d]pyrimidine-7-carboxamide]
IC50 [1]: 0.002 µM
IC50 [3]: 0.344 µM

COc1cc2[nH]ncc2cc1Nc1ncnc2sc3c(c12)CCC(C(=O)N1CCN(C)CC1)C3 (racemic) [Example 65, (RS)-{4-[(6-Methoxy-1H-indazol-5-yl)amino]-5,6,7,8-tetrahydro[1]benzothieno[2,3-d]pyrimidin-7-yl}(4-methylpiperazin-1-yl)methanone]
IC50 [1]: 0.0005 µM
IC50 [3]: 0.343 µM

CC(C)Oc1cc2[nH]ncc2cc1Nc1ncnc2sc3c(c12)CCC(C(=O)N(C)C)C3 (racemic) [Example 70, (RS)—N,N-Dimethyl-4-{[6-(propan-2-yloxy)-1H-indazol-5-yl]amino}-5,6,7,8-tetrahydro[1]benzothieno[2,3-d]pyrimidine-7-carboxamide]
IC50 [1]: 0.0004 µM
IC50 [3]: 0.09 µM

Cc1ccccc1NC(=O)C1CCc2c(sc3ncnc(Nc4ccc5[nH]ncc5c4)c23)C1 (racemic) [Example 75, (RS)-4-(1H-Indazol-5-ylamino)-N-(2-methylphenyl)-5,6,7,8-tetrahydro[1]benzothieno[2,3-d]pyrimidine-7-carboxamide]
IC50 [1]: 0.0027 µM
IC50 [3]: 0.219 µM

COc1ccccc1NC(=O)C1CCc2c(sc3ncnc(Nc4ccc5[nH]ncc5c4)c23)C1 (stereo not shown) [Example 12, 4-(1H-indazol-5-ylamino)-N-(2-methoxyphenyl)-5,6,7,8-tetrahydro[1]benzothieno[2,3-d]pyrimidine-7-carboxamide]
IC50 [1]: 0.008 µM
IC50 [3]: 0.252 µM

O=C(NCc1cccc(F)c1)C1CCc2c(sc3ncnc(Nc4ccc5[nH]ncc5c4)c23)C1 (stereo not shown) [Example 18, N-(3-Fluorobenzyl)-4-(1H-indazol-5-ylamino)-5,6,7,8-tetrahydro[1]benzothieno-[2,3-d]pyrimidine-7-carboxamide]
IC50 [1]: 0.002 µM
IC50 [3]: 0.412 µM

COc1cc2[nH]ncc2cc1Nc1ncnc2sc3c(c12)CCC(C(=O)NC(C)C)C3 (racemic) [Example 66, (RS)-4-[(6-Methoxy-1H-indazol-5-yl)amino]-N-(propan-2-yl)-5,6,7,8-tetrahydro[1]benzothieno[2,3-d]pyrimidine-7-carboxamide]
IC50 [1]: 0.0016 µM
IC50 [3]: 0.061 µM

O=C(NCc1ccccc1)C1CCc2c(sc3ncnc(Nc4ccc5[nH]ncc5c4)c23)C1 (stereo not shown) [Example 21, N-Benzyl-4-(1H-indazol-5-ylamino)-5,6,7,8-tetrahydro[1] benzothieno [2,3-d]pyrimidine-7-carboxamide]
IC50 [1]: 0.003 µM
IC50 [3]: 0.381 µM

CC(C)Oc1cc2[nH]ncc2cc1Nc1ncnc2sc3c(c12)CCC(C(=O)N1CCN(C)CC1)C3 (racemic) [Example 71, (RS)-(4-Methylpiperazin-1-yl)(4-{[6-(propan-2-yloxy)-1H-indazol-5-yl]amino}-5,6,7,8-tetrahydro[1]benzothieno[2,3-d]pyrimidin-7-yl)methanone]
IC50 [1]: 0.0005 µM
IC50 [3]: 0.032 µM

CC(O)CN(C)C(=O)C1CCc2c(sc3ncnc(Nc4ccc5[nH]ncc5c4)c23)C1 (racemic) [Example 122, (RS)-N-(2-hydroxypropyl)-4-(1H-indazol-5-ylamino)-N-methyl-5,6,7,8-tetrahydro[1]benzothieno[2,3-d]pyrimidine-7-carboxamide]
IC50 [1]: 0.0112 µM

CCN1CCN(C(=O)C2CCc3c(sc4ncnc(Nc5ccc6[nH]ncc6c5)c34)C2)CC1 (racemic) [Example 119, (RS)-(4-ethylpiperazin-1-yl)[4-(1H-indazol-5-ylamino)-5,6,7,8-tetrahydro[1]benzothieno[2,3-d]pyrimidin-7-yl]methanone]
IC50 [1]: 0.0159 µM

O=C(NCCN1CCOCC1)C1CCc2c(sc3ncnc(Nc4ccc5[nH]ncc5c4)c23)C1 (stereo not shown) [Example 42, 4-(1H-Indazol-5-ylamino)-N-[2-(morpholin-4-yl)ethyl]-5,6,7,8-tetrahydro[1] benzothieno [2,3-d]pyrimidine-7-carboxamide]
IC50 [1]: 0.009 µM
